These are literature values, as cited in US20110028639A1, “ROOM TEMPERATURE VULCANIZABLE POLYMERS” (HONEYWELL INTERNATIONAL, INC., priority 2007, published 2011).

The test system of this data set is males rats.

On to `CC(C)=NO` [acetone oxime], for which the tumors in rats result is “cause tumors”.
